# Assay results taken from paper PMC10115881, “Disrupting the α-synuclein-ESCRT interaction with a peptide inhibitor mitigates neurodegeneration in preclinical models of Parkinson’s disease” (Nature Communications, 2023).
# Experiments:
# endogenous a-syn = experiment: Endogenous a-syn immunofluorescence in rat cortical neurons; format: cell-based
# Excerpt: Pregnant rats (E17) of the Sprague-Dawley strain were purchased from Envigo. Embryos were surgically removed from the mothers and cortices dissected in Hanks Balanced salt solution (Gibco). The meninges were removed, and cells were dissociated using a papain dissociation system (Worthington) before being resuspended in Neurobasal medium A supplemented with antibiotic-antimycotic solution (Gibco), L-glutamine substitute (GlutaMAX™; Gibco) and factor B27 (Gibco). […]
# (§1) After fixation, cells were permeabilized with 0.2% Triton-X-100 for 15 min, washed three times with PBS and then incubated with blocking solution (1% BSA, 22.52 mg/mL glycine, 0.1% Tween-20 in PBS or 0.4% saponin, 1% BSA, and 5% goat or donkey serum in PBS) for 1 h. […] Following another three washes with PBS, nuclei were counterstained with DAPI (ThermoFisher) and then coverslips were mounted on slides using Dako fluorescence mounting medium (Agilent) and sealed using clear nail varnish.
# (§2) Confocal images of immunofluorescent staining were acquired with a Zeiss LSM880 confocal microscope equipped with 405, 488, 555, and 639 nm laser lines. All images were taken within the linear range at constant gain and pinhole settings at optimal resolution settings determined by the software. […]
# [1] = test system: a-syn in iPSC-derived dopaminergic neurons; experiment: a-syn fluorescence in iPSC-derived dopaminergic neurons; format: cell-based, human; conditions: A53T a-syn iPSC-derived dopaminergic neurons
# Experimental: A53T a-syn iCell Dopa neurons (catalog #R1109) and isogenic control iCell Dopa neurons (catalog #R1088) were purchased from Fujifilm Cellular Dynamics (Madison, WI, USA) and cultured as per the manufacturer’s instructions. Briefly, cells were plated in complete maintenance medium provided by the manufacturer on poly-L-ornithine/laminin coated μ plates (ibidi). Cells recovered from thawing for 24 h and then were transduced with AAV-Scramble1.3-RFP or AAV-PDpep1.3-RFP at MOI of 3000 for 48 h at which time media was completely changed. Cells were fixed using 4% PFA at 7 days post-plating.
# as §2
# Confocal images of primary cortical neurons, iPSC-derived dopaminergic neurons, and LAMP1 staining within the SN were processed using Imaris software (Oxford instruments). […] Mean pixel intensity per GFP^+ cell (for experiments using GFP-tagged peptides) or RFP^+ cell (for experiments using RFP-tagged peptides) was calculated for a-syn or LAMP1 signal using the software’s surfaces module. […]
# LAMP1 = LAMP1 levels in HEK293 cells; format: cell-based, human; conditions: A53T a-syn overexpression
# Experimental: Infected or transfected cells were scraped from six-well dishes and lysed with lysis buffer (50 mM Tris-HCl pH 7.4, 1% Nonidet P-40, 150 mM NaCl, 1 mM EDTA, 1× protease inhibitor mixture (Sigma)) for 30 min at 4 °C. The insoluble pellet was removed following a 10,000 rpm spin for 5 min at 4 °C. Lysates were analyzed by SDS-PAGE/immunoblot using 4–20% Mini-PROTEAN Tris-glycine gels (Bio-Rad), transferred to polyvinylidene fluoride (PVDF) membranes, and blocked in 5% milk containing PBS-Tween-20 (0.1%) for 1 h. PVDF membranes were then incubated with specified primary antibodies followed by incubation with horseradish peroxidase-conjugated secondary antibodies (anti-mouse HRP-linked, Cell Signaling, catalog #7076, 1:5000; anti-rabbit HRP-linked, Cell Signaling, catalog #7074, 1:5000) and detected using enhanced chemiluminescence (GE Healthcare). […]
# as §1
# VPS4B-CHMP2B interaction = experiment: Co-immunoprecipitation: disruption of VPS4B-CHMP interaction; format: cell-based
# Experimental: HEK293T cells were co-transfected with Flag-tagged target protein, HA-tagged source protein, and GFP-tagged peptide or GFP. Cells were lysed 48 h after transfections with radioimmune precipitation assay buffer (50 mM Tris-HCl pH 7.4, 1% Nonidet P-40, 150 mM NaCl, 1 mM EDTA, 10 mM Na3VO4, 10 mM sodium pyrophosphate, 25 mM NaF, 1× protease inhibitor mixture (Sigma)) for 30 min at 4 °C and co-immunoprecipitated with Flag beads (Clontech). The resulting immunocomplexes were analyzed by immunoblot using the appropriate antibodies. Protein samples were separated using 4–20% Mini-PROTEAN Tris-glycine gels (Bio-Rad) transferred to PVDF membranes and blocked in 5% milk containing PBS-Tween-20 (0.1%) for 1 h. PVDF membranes were then incubated with specified primary antibodies followed by incubation with horseradish peroxidase-conjugated secondary antibodies (anti-mouse HRP-linked, Cell Signaling, catalog #7076, 1:5000; anti-rabbit HRP-linked, Cell Signaling, catalog #7074, 1:5000) and detected using enhanced chemiluminescence (GE Healthcare). HA antibodies were obtained from Santa Cruz (catalog #7392, 1:2000), GFP antibodies were purchased from Abcam (catalog #ab290, 1:2000), and Flag antibodies were purchased from Sigma (catalog #A8592, 1:1000).
sequence,measurement,setting,value
DEEIERQLKALG [PDpep1.3],Effect on endogenous a-syn fluorescence,endogenous a-syn,reduced fluorescence intensity
same,"Effect on a-syn levels, iPSC neurons",[1],"returned levels of a-syn, including oligomeric a-syn, as well as LAMP1 levels to those of isogenic controls"
same,"Effect on LAMP1 levels, HEK293",LAMP1,LAMP1 levels were restored
same,Effect on VPS4B-CHMP2B interaction,VPS4B-CHMP2B interaction,inhibits the CHMP2B-VPS4 interaction
